From US20140179786A1, “Treatment of Alzheimer's Disease Using Tolfenamic Acid” (Board of Governors for Higher Education, State of Rhode …, priority 2012, published 2014) come the findings set out here.

Assay [1] concerns tau phosphorylated at Thr 181. As to the kind of experiment: P-tau at Thr 181 by Western blotting. The settings on record: 5 and 50 mg/kg groups vs control, p<0.05. Format: in vivo, mice. As to the method:
(§1) As phosphorylation of tau affects its function and its ability to bind to microtubules, it was important to test how phosphorylated tau is affected by the treatment. P-tau levels were analyzed by Western blotting using specific antibodies. P-tau at Ser 235 (as shown in FIG. 4A) and P-tau at Thr 181 (as shown in FIG. 4B) were lowered by both doses of tolfenamic acid as shown in FIGS. 4A and 4B. Tau phosphorylated at Ser 235 was lowered by about 15% as indicated by one-way ANOVA (F(2,11)=6.105, p=0.0165), Tukey-Kramer post-test p<0.05 for the C vs the 5 mg/kg group and for the C vs the 50 mg/kg group. P-tau at Thr 181 was lowered by about 30%, one-way ANOVA F(2,10)=7.272, p=0.0112, Tukey-Kramer post-test p<0.05 for the C vs the 5 mg/kg group and for the C vs the 50 mg/kg group.
(Immunoblotting shows a protein as a band on a membrane.)

The subject of assay [2] is tau phosphorylated at Ser 235. Briefly: P-tau at Ser 235 by Western blotting. In kind it is in vivo, mice. The note with it: 5 and 50 mg/kg groups vs control, p<0.05. The procedure: as §1
In assay [3] the test system is CDK5. As to the kind of experiment: CDK5 gene expression in the cerebral cortex. Format: in vivo, mice. The settings on record: daily administration for a month; 5 and 50 mg/kg groups vs control, p<0.05. As to the method:
(§2) Since Sp1 also regulates CDK5 activators, the effects of tolfenamic acid on CDK5 were also tested. […] 3A (using one-way ANOVA F(2,13)=59.647, p=2.8×10^−7 Tukey-Kramer post-test p<0.05 for the C vs the 5 mg/kg group and for the C vs the 50 mg/kg group). […] When comparing the 50 mg/kg dose group to the control however, by Tukey-Kramer test, the 40% lowering in CDK5 from control was statistically significant (p<0.05).

In assay [4] the test system is homozygous APP YAC transgenic mice, line R1.40. Briefly: Y-maze spontaneous alternation, working memory. Format: in vivo. The settings on record: day 33. As to the method: In order to examine the ability of tolfenamic acid to improve the learning and memory deficits in AD transgenic mice model, male and female homozygous APP YAC transgenic, line R1.40, and wild type C57BL/6 mice aging between 20-24 months were used. Four groups of similar age and gender variation were administered vehicle or tolfenamic acid daily via oral gavages for 34 days; one transgenic group was administered 5 mg/kg/day tolfenamic acid in corn oil (n=7); the second transgenic group was administered 50 mg/kg/day tolfenamic acid in corn oil (n=7), the third transgenic group was administered corn oil, the vehicle, and the last group which consisted of wild type C57BL/6 mice was administered vehicle (n=8). Upon conducting the 8 acquisition sessions, probe trials on Day 1 and Day 11 following the last day of training were performed to assess the long-term memory retention by studying the preference of the mice to the correct quadrant that contained the hidden platform. On day 33, mice were tested for spontaneous alternation in Y-maze, defined as the percentage of the number of arm entries different from the previous two entries divided by the total arm entries minus two. Finally, on Day 35, mice were euthanized and brain tissue was removed and stored at −80° C.

Assay [5] has the same test system. Briefly: Morris water maze, learning and long-term memory. In kind it is in vivo. As to the method: In order to examine the ability of tolfenamic acid to improve the learning and memory deficits in AD transgenic mice model, male and female homozygous APP YAC transgenic, line R1.40, and wild type C57BL/6 mice aging between 20-24 months were used. Four groups of similar age and gender variation were administered vehicle or tolfenamic acid daily via oral gavages for 34 days; one transgenic group was administered 5 mg/kg/day tolfenamic acid in corn oil (n=7); the second transgenic group was administered 50 mg/kg/day tolfenamic acid in corn oil (n=7), the third transgenic group was administered corn oil, the vehicle, and the last group which consisted of wild type C57BL/6 mice was administered vehicle (n=8). After 14 days of daily dosing, mice were tested in Morris water maze. In this task, the mice had to locate the hidden platform by learning multiple spatial relationships between the platform and the distal extra-maze cues. On the first day, mice received a habituation trial in which they were allowed to swim freely for 60 seconds. On the following day and for a total of 8 days, mice received training sessions of 3 trials daily. The starting position for each trial was randomly assigned between the four possible positions while the platform position was fixed in each trial. Each animal was allowed to swim until they find the immersed hidden platform or for a maximum of 60 seconds. […]

The subject of the next assay is tau gene. Briefly: tau mRNA expression in mouse cortex by real time PCR. Format: in vivo, mice. The settings on record: 0, 5 and 50 mg/kg/day for 34 days; vs control; dose of the value not stated. The procedure:
(§3) It has been discovered that tolfenamic acid lowers the levels of the transcription factor Sp1, and consequently reduce the levels of an Sp1 target gene, APP, along with its pathogenic cleavage product Aβ. […] Therefore, in the study design 0, 5 and 50 mg/kg/day tolfenamic acid was administered for 34 days. […] Total mRNA levels were analyzed by real time PCR with β-actin as endogenous control. Protein expression was measured by Western blot analysis and quantified as a ratio to the house keeping protein β-actin (antibodies: T9450, Sigma-Aldrich, MO; 4970, Cell Signaling, MA). […] Values shown are the mean ±SEM.
(Real-time PCR tracks product formation cycle by cycle.)

For assay [6], the system named is CDK5. As to the kind of experiment: CDK5 protein levels after tolfenamic acid treatment. In kind it is in vivo, mice. The procedure:
as §2

For a further assay, the system named is tau protein. Briefly: total tau protein levels in mouse cortex by Western blot. The note with it: 0, 5 and 50 mg/kg/day for 34 days; vs control; p<0.05; dose of the value not stated. Format: in vivo, mice. The procedure:
as §3

Turning to `Cc1c(Cl)cccc1Nc1ccccc1C(=O)O` [tolfenamic acid], the “lowering of P-tau at Thr 181” value in assay [1] is recorded as “about 30%”. In addition, the “lowering of tau phosphorylated at Ser 235” value in assay [2] is listed as “about 15%”. Also, the “lowering of CDK5 gene expression in the cerebral cortex” value with CDK5 [3] is on record as “about 50%”. For the same molecule, in assay [4] (5 mg/kg/day), the “improvement in the behavioral profile (spontaneous alternation, Y-maze)” value is given as “did not reach significance”. Further, the “increase in the spontaneous alternation ratio in Y-maze” value in assay [4] (50 mg/kg/day) was “significant”. Also, in assay [5] (5 and 50 mg/kg/day, Day 1 and 11 following the 8 daily training sessions), the “% time spent in the target quadrant, probe trials (long-term memory retention)” value is “significant increase”. In assay [5] (both doses (5 and 50 mg/kg/day), oral gavage, transgenic mice 20-24 months), the “spatial learning profile (escape latency) in daily trials” value is “improved”. Further, the “lowering of tau mRNA expression” value in the assay on tau gene amounted to 48%. The “lowering in CDK5 levels from control” value in the assay with CDK5 [6] (50 mg/kg dose group vs control, Tukey-Kramer p<0.05) was determined as 40%. The “CDK5 levels, lowering trend by one-way ANOVA” value in the assay on CDK5 [6] (all dose groups, one-way ANOVA F(2,8)=4.086, p=0.059) is on record as “not significant”. The “reduction of total tau protein levels” value with tau protein is 46%.
